Several values for one entry are separate records, joined by “and”; a condition that tells them apart may be missing. Identical values can stand only once. A value given as a limit tells only on which side of the number the result lay.

Series [1] concerns thymidine transport (nucleoside transporter) in L1210 cells. Kind of series: Inhibition kinetics of thymidine transport (Kt, Tmax, Dixon plot Ki). An excerpt:
(§1) In particular, inhibition of thymidylate synthase (TS) is an attractive target for antimetabolite chemotherapy because thymine is the only nucleobase found exclusively in DNA and TS is a key enzyme, possibly the rate-limiting step, in DNA synthesis. One locus of action of 5-fluorouracil (5-FU), which is widely used for the treatment of colorectal, breast and head-and- neck cancer, is TS inhibition following its intracellular conversion to 5-FdUMP. […] Inhibition of TS results in the depletion of intracellular dTTP and, as a result of elevated dUMP levels, an accummulation of dUTP. […] In addition, release of nucleic acids from dead cells may result in high local concen- trations of salvageable nucleosides and bases in tumours. Salvage of pre-formed nucleosides is dependent on uptake across the plasma membrane into the cell. At physiological nucle- oside concentrations the principal mode of nucleoside uptake is via the es and ei equilibrative carriers, described as such on the basis of their sensitivity (es) or insensitivity (ei) to the transport inhibitor nitrobenzylmercaptopurine riboside (NBMPR). […] In addition, potentiation of the cytotoxicity of 5-FU was investigated. […] All other chemicals were obtained from Sigma unless stated otherwise. […] For growth inhibition and cytotoxicity assays, cells were adapted to grow in RPMI medium supplemented with 10% (v/v) dialysed serum (dialysed for 24 h at 4C against two changes of 9 volumes of phosphate-buffered saline (PBS) containing 1 g activated charcoal L-1 and a further two changes of 9 volumes of PBS) to remove thymidine. […] The uptake of 100 M thymidine by […] was followed at 2-second intervals over a 12-second time course in the presence or absence of inhibitor in 1% or 5% (v/v) DMSO. […] Exponentially growing L1210 cells were washed with and resus- pended in ice-cold transport buffer (130 mM sodium chloride, 5 mM potassium chloride, 1 mM magnesium chloride, 5 mM NaH2 PO4 , 10 mM glucose and 10 mM HEPES pH 7.4) at 2-4 x 10^7 cells ml-1 . […] Transport was initiated by adding 50 l of 300 M thymidine in transport buffer, containing 25 Ci ml-1 [methyl-3 H]thymidine (Sp. Act. 1.5-2.2 TBq mmol-1; Amersham, UK) and 2 Ci ml-1 [U-14 C]sucrose (17-27 GBq mmol-1; Amersham), to each tube in turn at 1-second intervals, giving final concentrations of: […] in transport buffer 5 mg ml-1 AGP, 100 M thymidine and 1% or 5% (v/v) DMSO inhibitor. […] The tubes were immediately centrifuged at 12 000g for 2 min at room temperature causing the cells to pass through the oil and into the KOH. […] Cell number and viability in each assay was determined by haemocytometer counting using trypan blue exclu- sion. After centrifugation the tubes were capped and cut in the oil layer such that the bottom portion (cells solubilized in KOH) fell into a 20 ml scintillation vial. […] The rate of thymidine uptake in the presence and absence of inhibitor was calculated by unweighted linear regres- sion analysis of thymidine uptake (pmol 10-6 cells) vs time (seconds) using GraphPad PRISMTM software (GraphPad Software Inc. San Diego, CA, USA). […] Kt and Tmax values were calculated using the equation describing a one-site binding hyperbola, fitted using GraphPad PRISM software. […] The DMSO concentration was controlled so as to be present at 1% (v/v) in the final incubation. Replicate aliquots of the remaining cell suspension were counted to obtain a time zero cell count.

The next series can be described thus: in vitro. Particulars: mouse.
Excerpt: as §1

The subject of series [2] is L1210 cells. Description: in vitro.
Excerpt: as §1

Series [3] has as its system L1210 cells. Description: Growth inhibition assay, CB3717 with or without thymidine and transport inhibitor, 48 h cell count. It is filed as cell-based, murine.
[4] abbreviates: 1 μM transport inhibitor, data not shown.
The mark [5] stands for this setting: 10 μM transport inhibitor, 48 h, normalized to inhibitor alone.

Regarding `OCCN(CCO)c1nc(N2CCCCC2)c2nc(N(CCO)CCO)nc(N3CCCCC3)c2n1` [Dipyridamole, 2,6-bis-(diethanolamino)-4,8-di-piperidino-pyrimidopyrimidine], the “type of inhibition of thymidine uptake” value in series [1] (L1210) is recorded as “mixed-type inhibition”. Besides, in series [1] (in the presence of 0.3 μM inhibitor, L1210), the “apparent Tmax of thymidine transport” value was 8.4 pmol/10-6 cells/s. In addition, in series [1] (read-out: Ki for inhibition of thymidine uptake, L1210, abstract), the inhibition constant Ki (commonly a dissociation constant, usually derived from enzyme kinetics or from competition with a known ligand) stood at 280 nM. The activity at 16 h, 1 µM in the series “in vitro” came out at 100%. Besides, the “EF50 (enhancement factor), nolatrexed” value in the series on L1210 cells [2] (LC50 alone/LC50 + 1 μM inhibitor) was determined as 1.3. Besides, the “EF90 (enhancement factor), nolatrexed” value in the series on L1210 cells [2] (LC90 alone/LC90 + 1 μM inhibitor, listed as DP) is 7.5 and 6.1. Moreover, the “reduction of nolatrexed LC90” value with L1210 cells [2] (absence of salvageable thymidine, abstract) was “> threefold”. The “potentiation of 5-FU cytotoxicity” value with L1210 cells [2] (mouse) is given as “Significant potentiation”. Also, in the series on L1210 cells [3] (setting [4]), the “potentiation of CB3717 growth inhibition” value is reported as “modest potentiation” and the “reversal of thymidine rescue from CB3717 growth inhibition” value is recorded as “partial reversal”. Besides, in the series on L1210 cells [3] (setting [5]), the “% Control cell growth + 3 M CB3717, + 1 M TdR” value turned out to be 4%; the “% Control cell growth + 3 M CB3717, no TdR” value is 4%; the “% Control cell growth + 10 M CB3717, + 1 M TdR” value was determined as 1%; the “% Control cell growth + 10 M CB3717, no TdR” value amounted to 0%.
